ChEMBL document CHEMBL4418268, “Nitrogen-containing heterocyclic compound” (2018)

Test system: HUVEC
Assay: Inhibition of TNF-alpha-induced CXCL10 production in HUVEC cells at 0.1 uM incubated for 1 hr followed by TNF-alpha addition and measured after 72 hrs by ELISA relative to control
Format: functional
Conditions: Homo sapiens

| Structure (SMILES) | inhibition at 0.1 µM |
| --- | --- |
| CCn1c(=O)cc(N2CCOCC2)c2cc(-n3c(-c4ccc(C(F)(F)F)cc4)c[nH]c3=O)ccc21 | ≥ 50% |
| CCn1c(=O)cc(C2CCN(C)CC2)c2cc(C(=O)N(C)c3ccc4c(c3)CCC4)ccc21 | ≥ 50% |
| CCn1c(=O)cc(C2CCN(C)CC2)c2cc(C(=O)N3CCCc4ccccc43)ccc21 | ≥ 50% |
| CCn1c(=O)cc(N2CCOCC2)c2cc(-n3c(-c4ccccc4)cn(CCN(C)C)c3=O)ccc21 | ≥ 50% |
| CCCCn1cc(-c2ccccc2)n(-c2ccc3c(c2)c(N2CCOCC2)cc(=O)n3CC)c1=O | ≥ 50% |
| CCn1c(=O)cc(N2CCOCC2)c2cc(-n3c(-c4ccccc4)cn(CCN4CCCCC4)c3=O)ccc21 | ≥ 50% |
| CCn1c(=O)cc(C(C)C)c2cc(N(C)C(=O)c3ccc(Cl)cc3)ccc21 | ≥ 50% |
| CCn1c(=O)cc(N2CCOCC2)c2cc(-n3c(-c4ccccc4)cn(CCO)c3=O)ccc21 | ≥ 50% |
| CCn1c(=O)cc(C2CC2)c2cc(N3C(=O)CC[C@H]3c3ccccc3)ccc21 | ≥ 50% |
| CCn1c(=O)cc(N2CCOCC2)c2cc(-n3c(-c4ccccc4)c[nH]c3=O)ccc21 | ≥ 50% |
| CCn1c(=O)cc(C2CC2)c2cc(-c3nc(C)[nH]c3-c3ccccc3)ccc21 | ≥ 50% |
| CCn1c(=O)cc(C2CC2)c2cc(-n3c(-c4ccc(Cl)cc4)c[nH]c3=O)ccc21 | ≥ 50% |
| CCN1CCC(c2cc(=O)n(CC)c3ccc(C(=O)N(C)c4ccccc4)cc23)CC1 | ≥ 50% |
| CCn1c(=O)cc(C2CC2)c2cc(-c3nccnc3-c3ccccc3)ccc21 | ≥ 50% |
| CCn1c(=O)cc(C2CC2)c2cc(-n3c(C)cc(=O)n3-c3ccccc3)ccc21 | ≥ 50% |
| CCn1c(=O)cc(N2CCOCC2)c2cc(-n3c(-c4ccccc4)cn(C(C)C)c3=O)ccc21 | ≥ 50% |
| CCn1c(=O)cc(N2CCOCC2)c2cc(-n3c(-c4ccccc4)cn(CCOC)c3=O)ccc21 | ≥ 50% |
| CCn1c(=O)cc(C2CC2)c2cc(-n3c(=O)cc(C)n3-c3ccccc3)ccc21 | ≥ 50% |
| CCn1c(=O)cc(C2CC2)c2cc(-c3nc(C)nn3-c3ccccc3)ccc21 | ≥ 50% |
| CCn1c(=O)cc(C2CC2)c2cc(-n3c(=O)[nH]c(=O)n3-c3ccccc3)ccc21 | ≥ 50% |
| CCn1c(=O)cc(N2CCOCC2)c2cc(-n3c(-c4ccc(C(F)(F)F)cc4)cn(C)c3=O)ccc21 | ≥ 50% |
| CCn1c(=O)cc(C2CCN(C)CC2)c2cc(C(=O)N(C)c3ccc(C)c(C)c3)ccc21 | ≥ 50% |
| CCn1c(=O)cc(N2CCOCC2)c2cc(-n3c(-c4ccc(C)cc4)cn(C)c3=O)ccc21 | ≥ 50% |
| CCn1c(=O)cc(C2CCN(C)CC2)c2cc(C(=O)N(C)c3ccc(C)cc3)ccc21 | ≥ 50% |
| CCn1c(=O)cc(C)c2cc(-c3cccnc3-c3ccccc3)ccc21 | ≥ 50% |
| CCn1c(=O)cc(C2CC2)c2cc(N3C(=O)C(C)C(=O)N3c3ccccc3)ccc21 (stereo unspecified) | ≥ 50% |

| Structure (SMILES) | inhibition at 0.1 µM |
| --- | --- |
| CCn1c(=O)cc(N2CCOCC2)c2cc(-c3ccccc3-c3ccccc3)ccc21 | ≥ 50% |
| CCn1c(=O)cc(C2CC2)c2cc(-n3c(-c4ccc(C)cc4)cn(C)c3=O)ccc21 | ≥ 50% |
| CCn1c(=O)cc(N2CCOCC2)c2cc(N3C(=O)CC[C@H]3c3ccccc3)ccc21 | ≥ 50% |
| CCn1c(=O)cc(N2CCOCC2)c2cc(-n3c(-c4ccc(C)cc4)c[nH]c3=O)ccc21 | ≥ 50% |
| CCn1c(=O)cc(C2CCN(C)CC2)c2cc(C(=O)N(C)c3ccc(C)c(F)c3)ccc21 | ≥ 50% |
| CCCn1cc(-c2ccccc2)n(-c2ccc3c(c2)c(N2CCOCC2)cc(=O)n3CC)c1=O | ≥ 50% |
| CCn1c(=O)cc(N2CCOCC2)c2cc(-n3c(-c4ccc(Cl)cc4)c[nH]c3=O)ccc21 | ≥ 50% |
| CCn1c(=O)cc(C2CC2)c2cc(-n3c(-c4ccc(C(F)(F)F)cc4)cn(C)c3=O)ccc21 | ≥ 50% |
| CCC1C(=O)N(c2ccccc2)N(c2ccc3c(c2)c(C2CC2)cc(=O)n3CC)C1=O (stereo unspecified) | ≥ 50% |
| CCn1cc(-c2ccccc2)n(-c2ccc3c(c2)c(N2CCOCC2)cc(=O)n3CC)c1=O | ≥ 50% |
| CCn1c(=O)cc(N2CCOCC2)c2cc(-n3c(-c4ccccc4)cn(CCN4CCOCC4)c3=O)ccc21 | ≥ 50% |
| CCn1c(=O)cc(C2CC2)c2cc(-n3c(-c4ccc(C(F)(F)F)cc4)c[nH]c3=O)ccc21 | ≥ 50% |
| CCn1c(=O)cc(N2CCOCC2)c2cc(-c3cccnc3-c3ccccc3)ccc21 | ≥ 50% |
| CCn1c(=O)cc(N2CCOCC2)c2cc(-c3nccn3-c3ccccc3)ccc21 | ≥ 50% |
| CCn1c(=O)cc(N2CCOCC2)c2cc(-n3ccnc3-c3ccccc3)ccc21 | ≥ 50% |
| CCn1c(=O)cc(N2CCOCC2)c2cc(-n3cc(C)nc3-c3ccccc3)ccc21 | ≥ 50% |
| CCn1c(=O)cc(C2CC2)c2cc(-n3c(-c4ccc(C)cc4)c[nH]c3=O)ccc21 | ≥ 50% |
| CCn1c(=O)cc(C2CCN(C(C)=O)CC2)c2cc(C(=O)N(C)c3ccc(C)cc3)ccc21 | ≥ 50% |
| CCn1c(=O)cc(C2CC2)c2cc(N(C)C(=O)c3ccccc3)ccc21 | ≥ 50% |
| CCn1c(=O)cc(C2CCC(O)CC2)c2cc(C(=O)N(C)c3ccc(Cl)cc3)ccc21 (stereo unspecified) | ≥ 50% |
| CCn1c(=O)cc(N2CCOCC2)c2cc(N(C)C(=O)c3ccc(Cl)cc3)ccc21 | ≥ 50% |
| CCn1c(=O)cc(N2CCOCC2)c2cc(-n3c(-c4ccc(Cl)cc4)cn(C)c3=O)ccc21 | ≥ 50% |
| CCn1c(=O)cc(C2CC2)c2cc(-n3c(-c4ccc(Cl)cc4)cn(C)c3=O)ccc21 | ≥ 50% |
| CCn1c(=O)cc(C2CCN(C)CC2)c2cc(C(=O)N(C)c3ccc(C)c(Cl)c3)ccc21 | ≥ 50% |
| CCn1c(=O)cc(C2CC2)c2cc(-c3cccnc3-c3ccccc3)ccc21 | ≥ 50% |
